Measured values from BindingDB's records for doi:10.1073/pnas.90.8.3452 (The Scripps Research Institute, 1993).

molecular target: 5-hydroxytryptamine receptor 5B (Rattus norvegicus, UniProt P35365)
Sequence (P35365 whole entry): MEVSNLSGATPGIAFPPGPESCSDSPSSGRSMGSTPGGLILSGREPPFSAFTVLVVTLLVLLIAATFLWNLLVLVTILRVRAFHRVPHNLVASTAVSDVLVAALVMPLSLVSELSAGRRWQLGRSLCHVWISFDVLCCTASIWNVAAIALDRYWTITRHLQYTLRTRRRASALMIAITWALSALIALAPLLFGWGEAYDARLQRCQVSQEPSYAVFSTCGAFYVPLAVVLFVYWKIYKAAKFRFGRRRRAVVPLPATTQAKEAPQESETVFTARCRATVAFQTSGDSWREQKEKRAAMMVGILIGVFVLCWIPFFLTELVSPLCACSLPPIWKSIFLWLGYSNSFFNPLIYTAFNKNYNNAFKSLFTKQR

First: CCCN(CCC)C1CCc2cccc(O)c2C1 (stereo unspecified)
Second: CC[C@@H](CO)NC(=O)[C@@H]1C=C2c3cccc4c3c(cn4C)C[C@H]2N(C)C1
The Ki of the first is 5.1-fold higher: 1000 nM for the first, 196 nM for the second.

NCCc1ccc(O)c(O)c1 and NCC(O)c1ccc(O)c(O)c1 (stereo not drawn) [Noradrenaline,(+)] are the same in Ki: 1000 nM for the first, 1000 nM for the second.

First: COc1ccc2[nH]cc(CCNC(C)=O)c2c1
Second: NCCc1c[nH]c2ccc(C(N)=O)cc12 [[3H]-5-carboxamidotryptamine]
The Ki of the first is 79-fold higher: 1000 nM for the first, 12.6 nM for the second. The second binds more tightly here.

CN1C[C@@H](NS(=O)(=O)N(C)C)C[C@@H]2c3cccc4c3c(cn4C)C[C@H]21 [MESULERGINE] and CN1C[C@H](CNC(=O)OCc2ccccc2)C[C@@H]2c3cccc4c3c(cn4C)C[C@H]21 [METERGOLINE] are the same in Ki: 1000 nM for the first, 1000 nM for the second.

COc1cc(N)c(Cl)cc1C(=O)NC1CN2CCC1CC2 (stereo unspecified) [ZACOPRIDE,R] and COc1cc(CC(C)N)c(OC)cc1I (stereo unspecified) [[125I]2,5-dimethoxy-4-iodoamphetamine] are the same in Ki: 1000 nM for the first, 1000 nM for the second.

molecular target: 5-hydroxytryptamine receptor 5A (Rattus norvegicus, UniProt P35364)
Sequence (P35364 whole entry): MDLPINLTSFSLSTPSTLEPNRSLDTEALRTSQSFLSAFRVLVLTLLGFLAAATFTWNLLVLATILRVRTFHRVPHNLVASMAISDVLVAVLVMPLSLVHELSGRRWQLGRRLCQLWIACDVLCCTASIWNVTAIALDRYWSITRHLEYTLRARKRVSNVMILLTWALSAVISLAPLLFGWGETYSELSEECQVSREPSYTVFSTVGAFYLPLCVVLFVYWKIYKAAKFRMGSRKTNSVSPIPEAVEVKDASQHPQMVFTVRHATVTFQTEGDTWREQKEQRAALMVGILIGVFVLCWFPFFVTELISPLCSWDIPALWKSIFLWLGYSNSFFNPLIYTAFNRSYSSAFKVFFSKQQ

CCCN(CCC)C1CCc2cccc(O)c2C1 (stereo unspecified) and CC[C@@H](CO)NC(=O)[C@@H]1C=C2c3cccc4c3c(cn4C)C[C@H]2N(C)C1 are the same in Ki: 1000 nM for the first, 1000 nM for the second.

NCCc1ccc(O)c(O)c1 and NCC(O)c1ccc(O)c(O)c1 (stereo not drawn) [Noradrenaline,(+)] are the same in Ki: 1000 nM for the first, 1000 nM for the second.

COc1ccc2[nH]cc(CCNC(C)=O)c2c1 and NCCc1c[nH]c2ccc(O)cc12 [[3H]-5-HT] are within 1.5-fold of each other in Ki: 1000 nM for the first, 1330 nM for the second.

CN1C[C@@H](NS(=O)(=O)N(C)C)C[C@@H]2c3cccc4c3c(cn4C)C[C@H]21 [MESULERGINE] and CN1C[C@H](CNC(=O)OCc2ccccc2)C[C@@H]2c3cccc4c3c(cn4C)C[C@H]21 [METERGOLINE] are the same in Ki: 1000 nM for the first, 1000 nM for the second.

COc1cc(N)c(Cl)cc1C(=O)NC1CN2CCC1CC2 (stereo unspecified) [ZACOPRIDE,R] and COc1cc(CC(C)N)c(OC)cc1I (stereo unspecified) [[125I]2,5-dimethoxy-4-iodoamphetamine] are the same in Ki: 1000 nM for the first, 1000 nM for the second.

With CSc1ccc2c(c1)C(N1CCN(C)CC1)Cc1ccccc1S2 (stereo unspecified) [methanesulfonic acid;1-methyl-4-(3-methylsulfanyl-5,6-dihydrobenzo[b][1]benzothiepin-5-yl)piperazine] the Ki was 146 nM.
